Assay [1] concerns the target T1, P2X7 (Homo sapiens (Human), UniProt Q99572). Kind of assay: P2X7 antagonism in human PBMCs (LPS + Bz-ATP induced IL-1β release, ELISA). The assay is classed as cell-based. Particulars: 0.5 mM Bz-ATP; for remaining activity at 10 µM: P2X7, 10 μM compound, human PBMC, read-out: PBMC 10 μM (% control); for PBMC 1 μM (% control): 1 μM compound. Here is the method:
Human blood was collected using a blood donor program. PBMCs were isolated from blood using a Ficoll density gradient technique. Briefly, blood was laid on Ficoll solution and centrifuged at RT for 20 minutes at 2000 rpm. The buffy layer (between red blood cells and plasma) was carefully collected by aspiration, washed with PBS and centrifuged again at 1500 rpm for 15 minutes. The resulting cell pellet was washed and plated on 96 well-plates for experiments. For the Mouse/Human Whole Blood experiments, 150 μl of either mouse or human blood was platted on 96 well-plates. Lipopolysaccharide (LPS) (30 ng/ml) was added to each well and incubated for 1 hour. Test compounds were then added and incubated for 30 minutes. The P2X7 agonist, 2′(3′)-O-(4-benzoylbenzoyl) adenosine 5′-triphosphate (Bz-ATP) was then added at a final concentration of 0.5 mM (PBMC) or 1 mM (blood). Cells were incubated for an additional 1.5 hours. At that point, supernatant was collected and stored for IL-1β assay using manufacturer's protocol for enzyme-linked immunosorbent assay (ELISA). Data was expressed as percent control, where control is defined as the difference in IL-1β release in LPS+Bz-ATP samples and LPS only samples. Data was plotted as response (% control) versus concentration to generate IC50 values. […] In Table 2, when the data cell has been left blank, it is intended to mean that the compound was not tested in that assay.
Background: In an ELISA, binding on a coated surface is turned into a signal by an enzyme label.

Assay [2] addresses T1, P2X7. Kind of assay: Radioligand binding, human P2X7-1321N1 cell membranes, tritiated A-804598 tracer. Particulars: 1 hour at 4° C. Here is the method:
(B) Radioligand binding: human or rat P2X7-1321N1 cells were collected and frozen @ −80° C. On the day of the experiment, cell membrane preparations were made according to standard published methods. […] The compound can be prepared as described in the literature. […] The assay was terminated by filtration (GF/B filters pre-soaked with 0.3% PEI) and washed with washing buffer (Tris-HCl 50 mM). The IC50 generated in the binding assay was corrected for tracer concentration and affinity of the tracer to derive at the affinity (Ki) of the test compounds.

The target in assay [3] is T2, rat P2X7 (Rattus norvegicus (Rat), UniProt Q64663). Kind of assay: Radioligand binding, rat P2X7-1321N1 cell membranes, tritiated A-804598 tracer. Particulars: 1 hour at 4° C. On the procedure: (B) Radioligand binding: human or rat P2X7-1321N1 cells were collected and frozen @ −80° C. On the day of the experiment, cell membrane preparations were made according to standard published methods. The total assay volume was 100 μl:10 μl compound (10×)+(b) 40 μl tracer (2.5×)+50 μl membrane (2×). The tracer used for the assay was tritiated A-804598. The compound can be prepared as described in the literature. (Donnelly-Roberts, D. Neuropharmacology 2009, 56 (1), 223-229.) Compounds, tracer and membranes were incubated for 1 hour @ 4° C. The assay was terminated by filtration (GF/B filters pre-soaked with 0.3% PEI) and washed with washing buffer (Tris-HCl 50 mM). The IC50 generated in the binding assay was corrected for tracer concentration and affinity of the tracer to derive at the affinity (Ki) of the test compounds.
T2 sequence (Q64663 whole entry): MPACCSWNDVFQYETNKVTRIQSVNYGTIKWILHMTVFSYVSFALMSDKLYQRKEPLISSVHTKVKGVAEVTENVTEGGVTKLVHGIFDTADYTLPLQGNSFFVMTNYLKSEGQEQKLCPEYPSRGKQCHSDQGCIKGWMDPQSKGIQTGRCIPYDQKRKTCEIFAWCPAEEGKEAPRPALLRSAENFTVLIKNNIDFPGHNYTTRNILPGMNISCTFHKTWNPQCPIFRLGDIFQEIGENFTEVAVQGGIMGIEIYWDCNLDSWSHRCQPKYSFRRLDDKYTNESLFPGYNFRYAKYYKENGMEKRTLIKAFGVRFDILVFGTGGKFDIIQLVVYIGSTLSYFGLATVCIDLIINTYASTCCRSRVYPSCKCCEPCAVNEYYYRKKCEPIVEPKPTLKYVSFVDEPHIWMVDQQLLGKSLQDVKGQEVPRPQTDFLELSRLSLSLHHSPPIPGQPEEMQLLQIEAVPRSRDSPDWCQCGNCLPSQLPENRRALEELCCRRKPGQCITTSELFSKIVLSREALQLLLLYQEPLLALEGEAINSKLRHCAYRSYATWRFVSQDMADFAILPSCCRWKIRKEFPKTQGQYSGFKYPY

Assay [4] has as its target T1, P2X7. Kind of assay: Ca2+ flux (FLIPR) in 1321N1 cells expressing recombinant human P2X7 channel. The assay is classed as cell-based. Particulars: 250 μM BzATP. Here is the method:
(§1) (A) Ca^2+ Flux: 1321N1 cells expressing the recombinant human, rat or mouse P2X7 channel was cultured in HyQ DME/(HyClone/Dulbecco's Modified Eagle Medium) high glucose supplemented with 10% Fetal Bovine Serum (FBS) and appropriate selection marker. Cells were seeded at a density of 25000 cells/well (96-well clear bottom black walled plates) in 100 μl volume/well. On the day of the experiment, cell plates were washed with assay buffer, containing (in mM): 130 NaCl, 2 KCl, 1 CaCl2, 1 MgCl2, 10 HEPES, 5 glucose; pH 7.40 and 300 mOs. After the wash, cells were loaded with the Calcium-4 dye (Molecular Device) and incubated in the dark for 60 minutes. Test compounds were prepared at 250× the test concentration in neat DMSO. Intermediate 96-well compound plates were prepared by transferring 1.2 μL of the compound into 300 μL of assay buffer. A further 3× dilution occurred when transferring 50 μL/well of the compound plate to 100 μL/well in the cell plate. Cells were incubated with test compounds and dye for 30 minutes. […] The fluorescence change was measured 180 seconds after adding the agonist.
Background: Calcium flux is commonly read through the fluorescence of an indicator in the cells.

Assay [5] deals with T2, rat P2X7. Kind of assay: Ca2+ flux (FLIPR) in 1321N1 cells expressing recombinant rat P2X7 channel. The class given is cell-based. Particulars: 250 μM BzATP. Here is the method: as §1
In assay [6] the target is T1, P2X7. Kind of assay: P2X7 antagonism in human whole blood (LPS + Bz-ATP induced IL-1β release, ELISA). The assay is classed as cell-based. Particulars: 1 mM Bz-ATP. Here is the method: Human blood was collected using a blood donor program. PBMCs were isolated from blood using a Ficoll density gradient technique. Briefly, blood was laid on Ficoll solution and centrifuged at RT for 20 minutes at 2000 rpm. The buffy layer (between red blood cells and plasma) was carefully collected by aspiration, washed with PBS and centrifuged again at 1500 rpm for 15 minutes. The resulting cell pellet was washed and plated on 96 well-plates for experiments. […] Lipopolysaccharide (LPS) (30 ng/ml) was added to each well and incubated for 1 hour. Test compounds were then added and incubated for 30 minutes. The P2X7 agonist, 2′(3′)-O-(4-benzoylbenzoyl) adenosine 5′-triphosphate (Bz-ATP) was then added at a final concentration of 0.5 mM (PBMC) or 1 mM (blood). Cells were incubated for an additional 1.5 hours. At that point, supernatant was collected and stored for IL-1β assay using manufacturer's protocol for enzyme-linked immunosorbent assay (ELISA). Data was expressed as percent control, where control is defined as the difference in IL-1β release in LPS+Bz-ATP samples and LPS only samples. Data was plotted as response (% control) versus concentration to generate IC50 values.

Some results are limits rather than exact numbers.

T1 sequence (Q99572 whole entry): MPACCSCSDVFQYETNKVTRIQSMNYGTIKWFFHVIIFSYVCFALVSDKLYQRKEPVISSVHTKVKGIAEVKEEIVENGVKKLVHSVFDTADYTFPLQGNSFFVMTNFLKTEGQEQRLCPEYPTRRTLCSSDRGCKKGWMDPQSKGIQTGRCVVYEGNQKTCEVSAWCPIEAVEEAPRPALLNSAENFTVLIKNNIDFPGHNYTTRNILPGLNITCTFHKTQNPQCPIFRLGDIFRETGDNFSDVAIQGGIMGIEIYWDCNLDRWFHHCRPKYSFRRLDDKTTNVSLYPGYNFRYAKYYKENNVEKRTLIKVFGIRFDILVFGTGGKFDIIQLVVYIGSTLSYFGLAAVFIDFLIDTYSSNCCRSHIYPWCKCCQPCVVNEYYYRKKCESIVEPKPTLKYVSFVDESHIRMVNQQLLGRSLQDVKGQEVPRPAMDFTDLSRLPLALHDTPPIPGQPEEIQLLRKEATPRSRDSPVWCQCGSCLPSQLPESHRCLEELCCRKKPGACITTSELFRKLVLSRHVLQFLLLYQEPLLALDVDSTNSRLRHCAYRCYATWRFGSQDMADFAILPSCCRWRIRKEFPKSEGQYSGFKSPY

Regarding `O=C1c2nnc(-c3cnccn3)n2C[C@@H](C2CC2)N1Cc1cccc(C(F)(F)F)c1Cl` (single isomer, unassigned) [Example 62], the remaining activity at 10 µM on P2X7 [1] turned out to be 14.1%.
For the compound `O=C1c2nnc(-c3cnccn3)n2C[C@H](C2CC2)N1Cc1cccc(C(F)(F)F)c1Cl` (single isomer, unassigned) [Example 63], at P2X7 [1], the remaining activity at 10 µM came out at 27.3%.
In the case of `O=C1c2nnc(-c3cnccn3)n2CCN1Cc1cccc(Cl)c1Cl` [Example 2, 7-(2,3-Dichlorobenzyl)-3-pyrazin-2-yl-6,7-dihydro[1,2,4]triazolo[4,3-a]pyrazin-8(5H)-one], the “PBMC 1 μM (% control)” value on P2X7 [1] stood at 50.6 % control.
For `O=C1c2nnc(-c3cnccn3)n2CCN1Cc1cccc(C(F)(F)F)c1Cl` [Example 3, 7-[2-Chloro-3-(trifluoromethyl)benzyl]-3-pyrazin-2-yl-6,7-dihydro[1,2,4]triazolo[4,3-a]pyrazin-8(5H)-one], on P2X7 [1], the “PBMC 1 μM (% control)” value is −0.6 % control. Further, the values for the inhibitory constant (Ki) on P2X7 [2] and on rat P2X7 [3] were 6.3 nM and 12.6 nM, respectively. Moreover, the figures for the IC50 on P2X7 [4] and on rat P2X7 [5] were 44.2 nM and 9310 nM, respectively.
Compound `O=C1c2nnc(-c3ccccn3)n2CCN1Cc1cccc(Cl)c1Cl` [Example 8, 7-(2,3-Dichlorobenzyl)-3-pyridin-2-yl-6,7-dihydro[1,2,4]triazolo[4,3-a]pyrazin-8(5H)-one] showed a Ki on P2X7 [2] of 20 nM. The IC50 on P2X7 [4] was 147 nM; at rat P2X7 [5], above 10000 nM; at P2X7 [6], 10000 nM.
For `O=C1c2nnc(-c3ccccn3)n2CCN1Cc1cccc(C(F)(F)F)c1Cl` [Example 9, 7-[2-Chloro-3-(trifluoromethyl)benzyl]-3-pyridin-2-yl-6,7-dihydro[1,2,4]triazolo[4,3-a]pyrazin-8(5H)-one] the same measures were 10 nM, 50.2 nM, above 10000 nM and above 10000 nM.
Consider `C[C@@H]1Cn2c(nnc2-c2cnccn2)C(=O)N1Cc1cccc(Cl)c1Cl` [Example 12, (6R)-7-(2,3-Dichlorobenzyl)-6-methyl-3-pyrazin-2-yl-6,7-dihydro[1,2,4]triazolo[4,3-a]pyrazin-8(5H)-one], for which the remaining activity at 10 µM at P2X7 [1] amounted to 20.6%.
For the compound `C[C@H]1Cn2c(nnc2-c2ccc(F)cn2)C(=O)N1Cc1cccc(C(F)(F)F)c1Cl` [Example 30, (6S)-7-[2-Chloro-3-(trifluoromethyl)benzyl]-3-(5-fluoropyridin-2-yl)-6-methyl-6,7-dihydro[1,2,4]triazolo[4,3-a]pyrazin-8(5H)-one], the remaining activity at 10 µM on P2X7 [1] was found to be 3.3%. In addition, at P2X7 [4], the concentration for half-maximal inhibition (IC50) is 0.9 nM.
As for `C[C@H]1Cn2c(nnc2C2CCCN(C(=O)OC(C)(C)C)C2)C(=O)N1Cc1cccc(C(F)(F)F)c1Cl` (stereo partly drawn) [Example 59, (6S)-tert-Butyl3-{7-[2-chloro-3-(trifluoromethyl)benzyl]-6-methyl-8-oxo-5,6,7,8-tetrahydro[1,2,4]triazolo[4,3-a]pyrazin-3-yl}piperidine-1-carboxylate], on P2X7 [1], the remaining activity at 10 µM amounted to 10.9%. Further, the IC50 on rat P2X7 [5] worked out at 1140 nM.

In general, Ki refers to a measure of affinity in units of concentration, obtained from inhibition or displacement. A higher Ki goes with lower affinity. One may read the IC50 as the midpoint of a concentration-inhibition curve.

Source of the values: patent publication US9040534B2, “[1,2,4]triazolo[4,3-a]pyrazines as P2X7 modulators” (Janssen Pharmaceutica NV, priority 2013, dated 2015).
